Assay results reported in patent US20220160843A1 (priority 2019, published 2022).
Where two headings read alike, the source gives them in different places.

Columns and labels:
[1] = test system: carbapenem-resistant P. aeruginosa strains; test: Resensitization of carbapenem-resistant clinical strains using carbapenems in combination with lysins; type: cell-based; details: for MIC: Pseudomonas aeruginosa, meropenem alone (GN121 checkerboard)
Description: The checkerboard assays is based on a modification of the CLSI method for MIC determination by broth microdilution (26, 29). Checkerboards were constructed by first preparing columns of a 96-well polypropylene microtiter plate, in which each well had the same amount of antibiotic diluted 2-fold along the horizontal axis. […] Summation fractional inhibitory concentrations (ΣFICs) were calculated for each drug and the minimum ΣFIC value (ΣFICmin) was used to determine synergy. ΣFICs were calculated as follows: ΣFIC=FIC A+FIC B, where FIC A is the MIC of each antibiotic in the combination/MIC of each antibiotic alone, and FIC B is the MIC of each GN lysin in the combination/MIC of each GN lysin alone. The combination is considered synergistic when the ΣFIC is ≤0.5, strongly additive when the ΣFIC is >0.5 to <1, additive with the ΣFIC is 1−<2, and antagonistic when the ΣFIC is ≥2.
Up to seven carbapenem-resistant isolates were assessed. […] See Clinical and Laboratory Standards Institute (CLSI), CLSI. […] M100 Performance Standards for Antimicrobial Susceptibility Testing; 29th Edition. Clinical and Laboratory Standards Institute, Wayne, Pa.

[2] = test system: P. aeruginosa; test: Minimal inhibitory concentration (MIC), modified CLSI broth microdilution in CAA or CAA/HuS; type: cell-based, Pseudomonas aeruginosa; details: for MIC (μg/mL) in CAA: CAA media; for MIC (μg/mL in CAA/HuS) / MIC value in CAA/HuS: CAA supplemented with 25% human serum
[3] = test system: P. aeruginosa strain ATCC 17647; test: Minimal Biofilm Eradicating Concentration (MBEC), Calgary Biofilm Device; type: cell-based, Pseudomonas aeruginosa; details: 24 h biofilm, 24 h treatment; minimum concentration removing >95% of biofilm biomass (crystal violet)
From the text: All samples were examined in triplicate.

[4] = test system: P. aeruginosa; test: Time-kill assay of GN lysin activity; type: cell-based, Pseudomonas aeruginosa; details: lysin 10 μg/mL, T = 0 7.8; for Log10 CFU/mL T = 3 hr: buffer control 7.2, limit of detection 3.7; for Log10 CFU/mL T = l hr: buffer control 7.7
Description: All treatments were incubated at 37° C. with aeration.

[5] = CAA/HuS, ‡ indicates bactericidal activity
[6] = HEPES buffer, ‡ indicates bactericidal activity

## C[C@@H](O)[C@H]1C(=O)N2C(C(=O)O)=C(SCCN=CN)C[C@H]12 [Imipenem, imipenem, reference compound]
[1]; isolate PA19, imipenem in combination with GN121
  IMIPENEM MIC Combination: 1 (S) μg/mL
[1]; isolate PA19, imipenem in combination with GN123
  IMIPENEM MIC Combination: 0.5 (S) μg/mL
[1]; isolate PA20, imipenem in combination with GN121
  IMIPENEM MIC Combination: 0.5 (S) μg/mL
[1]; isolate PA20, imipenem in combination with GN123
  IMIPENEM MIC Combination: 1 (S) μg/mL
[1]; isolate PA21, imipenem in combination with GN121
  IMIPENEM MIC Combination: 1 (S) μg/mL
[1]; isolate PA21, imipenem in combination with GN123
  IMIPENEM MIC Combination: 0.5 (S) μg/mL
[1]; isolate PA22, imipenem in combination with GN121
  IMIPENEM MIC Combination: 2 (S) μg/mL
[1]; isolate PA22, imipenem in combination with GN123
  IMIPENEM MIC Combination: 2 (S) μg/mL
[1]; isolate PA23, imipenem in combination with GN123
  IMIPENEM MIC Combination: 0.25 (S) μg/mL
[1]; isolate PA24, imipenem in combination with GN121
  IMIPENEM MIC Combination: 1 (S) μg/mL
[1]; isolate PA24, imipenem in combination with GN123
  IMIPENEM MIC Combination: 2 (S) μg/mL
[1]; isolate WC-452, imipenem in combination with GN123
  IMIPENEM MIC Combination: 1 (S) μg/mL

## C[C@@H](O)[C@H]1C(=O)N2C(C(=O)O)=C(S[C@@H]3CN[C@H](C(=O)N(C)C)C3)[C@H](C)[C@H]12 [Meropenem, meropenem, reference compound]
[1]; GN121, read-out: Meropenem MIC Alone, isolate PA19
  MIC: 32 µg/mL
[1]; GN121, read-out: Meropenem MIC Alone, isolate PA21
  MIC: 32 µg/mL
[1]; GN121, read-out: Meropenem MIC Alone, isolate PA22
  MIC: 16 µg/mL
[1]; GN121, read-out: Meropenem MIC Alone, isolate PA23
  MIC: 16 µg/mL
[1]; GN121, read-out: Meropenem MIC Alone, isolate PA24
  MIC: 32 µg/mL
[1]; GN121, read-out: Meropenem MIC Alone, isolate WC-452
  MIC: 16 µg/mL
[1]; isolate PA19, meropenem in combination with GN121
  Meropenem MIC Combination: 1 µg/mL
[1]; isolate PA19, meropenem in combination with GN123
  Meropenem MIC Combination: 0.5 (S) μg/mL
[1]; isolate PA20, meropenem in combination with GN121
  Meropenem MIC Combination: 1 µg/mL
[1]; isolate PA20, meropenem in combination with GN123
  Meropenem MIC Combination: 0.5 (S) μg/mL
[1]; isolate PA21, meropenem in combination with GN121
  Meropenem MIC Combination: 2 µg/mL
[1]; isolate PA21, meropenem in combination with GN123
  Meropenem MIC Combination: 1 (S) μg/mL
[1]; isolate PA22, meropenem in combination with GN121
  Meropenem MIC Combination: 1 µg/mL
[1]; isolate PA22, meropenem in combination with GN123
  Meropenem MIC Combination: 1 (S) μg/mL
[1]; isolate PA23, meropenem in combination with GN121
  Meropenem MIC Combination: 2 µg/mL
[1]; isolate PA23, meropenem in combination with GN123
  Meropenem MIC Combination: 0.5 (S) μg/mL
[1]; isolate PA24, meropenem in combination with GN121
  Meropenem MIC Combination: 1 µg/mL
[1]; isolate PA24, meropenem in combination with GN123
  Meropenem MIC Combination: 2 (S) μg/mL
[1]; isolate WC-452, meropenem in combination with GN121
  Meropenem MIC Combination: 1 µg/mL
[1]; isolate WC-452, meropenem in combination with GN123
  Meropenem MIC Combination: 1 (S) μg/mL

B1: GN94: Modified GN37, N-terminal peptide KFFKFFKFFK with linker, SEQ ID NO: 14 (protein)
chain: KFFKFFKFFKAGAGAGAGAGAGAGAGASMTYTLSKRSLDNLKGVHPDLVAVVHRAIQLTPVDFAVIEGLRSVSRQKELVAAGASKTMNSRHLTGHAVDLAAYVNGIRWDWPLYDAIAVAVKAAAKELGVAIVWGGDWTTFKDGPHFELDRSKYR
[2]
  MIC (μg/mL) in CAA: 16 µg/mL
  MIC (μg/mL in CAA/HuS): 2 µg/mL
  MIC value in CAA/HuS: 2 µg/mL
[3]
  MBEC: 2 µg/mL
[4]; [5]
  Log10 CFU/mL T = 3 hr: <3.7‡ Log10 CFU/mL
[4]; CAA/HuS
  Log10 CFU/mL T = l hr: 6.4 Log10 CFU/mL
[4]; [6]
  Log10 CFU/mL T = 3 hr: <3.7‡ Log10 CFU/mL
  Log10 CFU/mL T = l hr: 6.0 Log10 CFU/mL

B2: GN54: Modified GN4, N-terminal peptide KRKKRKKRK with linker, SEQ ID NO: 8 (protein)
chain: KRKKRKKRKAGAGAGAGAGAGAGAGASMRTSQRGIDLIKSFEGLRLSAYQDSVGVWTIGYGTTRGVTRYMTITVEQAERMLSNDIQRFEPELDRLAKVPLNQNQWDALMSFVYNLGAANLASSTLLKLLNKGDYQGAADQFPRWVNAGGKRLDGLVKRRAAERALFLEPLS
[2]
  MIC (μg/mL) in CAA: 64 µg/mL
  MIC (μg/mL in CAA/HuS): 2 µg/mL
  MIC value in CAA/HuS: 2 µg/mL
[2]; human serum
  activity in serum: does have activity in serum

B3: GN146: Modified GN4, amino acid substitutions (K99D, R115H), SEQ ID NO: 4 (protein)
chain: MRTSQRGIDLIKSFEGLRLSAYQDSVGVWTIGYGTTRGVTRYMTITVEQAERMLSNDIQRFEPELDRLAKVPLNQNQWDALMSFVYNLGAANLASSTLLDLLNKGDYQGAADQFPHWVNAGGKRLDGLVKRRAAERALFLEPLS
[2]
  MIC (μg/mL) in CAA: 2 µg/mL
  MIC (μg/mL in CAA/HuS): 2 µg/mL
  MIC value in CAA/HuS: 2 µg/mL
[3]
  MBEC: 2 µg/mL
[4]; [5]
  Log10 CFU/mL T = 3 hr: 4.0‡ Log10 CFU/mL
[4]; CAA/HuS
  Log10 CFU/mL T = l hr: 5.9 Log10 CFU/mL
[4]; [6]
  Log10 CFU/mL T = 3 hr: <3.7‡ Log10 CFU/mL
  Log10 CFU/mL T = l hr: 6.7 Log10 CFU/mL
